This is an account of results in US10150737B2, “Compounds for controlling arthropods” (priority 2013, dated 2018).

Data set [1] has as its system Ctenocephalides felis. In words: Ctenocephalides felis - in vitro contact tests with adult cat fleas. It counts as in vivo. The note with it: application rate 5 μg/cm2 (=500 g/ha); after 48 h; fleas dead or moribund. The essentials:
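Efficacy, as percentage of fleas dead or moribund, was scored at 48 h by knocking fleas to the tube base. Exposure was by contact with a dried acetone film of compound at 5 μg/cm^2 area dose; 5–10 adults per tube, room temperature, ambient humidity.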

A further data set relates to Phaedon cochleariae. In words: Phaedon cochleariae - spray test. It counts as in vivo. The conditions noted are these: larvae on Chinese cabbage leaf discs, after 7 days. The essentials:
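Mortality of mustard beetle larvae was scored as % at day 7 on Brassica pekinensis leaf discs. Discs had been treated by spraying at the desired concentration, using an acetone/dimethylformamide solution diluted in water with 1000 ppm alkylaryl polyglycol ether, and dried before larvae were added.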

In another data set the test system is Myzus persicae. In words: Myzus persicae - spray test. Format: in vivo. The conditions noted are these: Chinese cabbage leaf discs, after 6 days. The essentials: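 Mortality of the green peach aphid, as % killed, was read 6 days after spraying infested Brassica pekinensis leaf discs. Compound formulated in acetone/dimethylformamide and made up with emulsifier-containing (1000 ppm) water.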

The test system of a further data set is Boophilus microplus. In words: Boophilus microplus - injection test. It counts as in vivo. The conditions noted are these: application rate 20 μg/animal; injection into engorged adult female ticks; after 7 days. The essentials:
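Five engorged adult female cattle ticks each received a 1 μl abdominal injection of compound solution in dimethyl sulphoxide. Fertile egg laying was assessed at 7 days, with doubtful eggs incubated about 42 days until hatch. 0% efficacy means all eggs fertile.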

The test system of another data set is Tetranychus urticae. In words: Tetranychus urticae - spray test, OP-resistant. Format: in vivo. The note with it: bean leaf discs, after 6 days. The essentials: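 Mortality (%) read on day 6 after spraying Phaseolus vulgaris leaf discs carrying all mite stages with formulations at the desired concentration. Formulation: active ingredient in acetone plus dimethylformamide, made up with emulsifier-containing water (1000 ppm alkylaryl polyglycol ether).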

In the next data set the test system is Spodoptera frugiperda. In words: Spodoptera frugiperda - spray test. The conditions noted are these: caterpillars on maize leaf discs, after 7 days. It counts as in vivo. The essentials: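 Percent mortality of Spodoptera frugiperda caterpillars scored 7 days after placing them on dried maize leaf discs sprayed at the desired concentration. Spray formulation: compound dissolved in acetone/dimethylformamide, made up with water containing 1000 ppm emulsifier.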

A further data set relates to Lucilia cuprina. In words: Lucilia cuprina test. Format: in vivo. The note with it: application rate 100 ppm; L1 larvae; after 2 days. The essentials: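 Mortality (%) of first-instar blowfly larvae, about 20 per vessel, recorded 2 days after exposure to compound-treated minced horsemeat. Compound dissolved in dimethyl sulphoxide, then water-diluted to the desired concentration.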

The next data set has as its system Amblyomma hebraeum. In words: Amblyomma hebaraeum test (tick nymphs, immersion). Format: in vivo. The note with it: application rate 100 ppm; tick nymphs immersed one minute; after 42 days. On the procedure: Solvent: dimethyl sulphoxide
To produce an appropriate active ingredient formulation, 10 mg of active ingredient are mixed with 0.5 ml of dimethyl sulphoxide, and the concentrate is diluted with water to the desired concentration.
Tick nymphs (Amblyomma hebraeum) are placed into perforated plastic beakers and immersed in the desired concentration for one minute. The ticks are transferred on filter paper into a Petri dish and stored in a climate-controlled cabinet.
After 42 days, the kill in % is determined. 100% means that all of the ticks have been killed; 0% means that none of the ticks have been killed.

A short description of data set [2]: logP determination by HPLC on a reversed-phase column (C18). It counts as physicochemical. The conditions noted are these: for logP^a): HPLC-MS method a); for log P: HPLC-MS, Table I-T3.
In data set [3] the test system is Ctenocephalides felis. In words: Ctenocephalides felis - oral test. It counts as in vivo. The note with it: application rate 100 ppm in citrated cattle blood; after 2 days. The essentials: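 Roughly 20 unfed adult C. felis imbibe compound-dosed citrated cattle blood (DMSO formulation) across parafilm from a cylinder above their gauze chamber; percentage mortality recorded at day 2.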

The test system of the next data set is Musca domestica. In words: Musca domestica test. It counts as in vivo. The note with it: application rate 100 ppm; adult houseflies; after 2 days. The essentials: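 First, 10 mg compound was taken up in 0.5 ml DMSO and then brought with water to the required concentration. This was applied with sugar solution to a sponge in vessels holding 10 adult flies; kill was assessed after 2 days.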

Data set [4] deals with Boophilus microplus Parkhurst strain, SP-resistant. In words: Boophilus microplus - dip test. It counts as in vivo. The note with it: application rate 100 ppm; dip of engorged adult female ticks; after 7 days. The essentials:
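Compound dissolved in DMSO, diluted with water, and used to fully wet groups of 8-10 engorged female cattle ticks (SP-resistant Parkhurst strain). Fertile egg laying assessed at 7 days, doubtful eggs held ~42 days until hatch; 0% means all eggs fertile.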

The next data set deals with Rhipicephalus sanguineus. In words: Rhipicephalus sanguineus - in vitro contact tests with adult brown dog ticks. The conditions noted are these: application rate 0.2 μg/cm2; after 48 h; ticks dead or moribund. Format: in vivo. On the procedure:
For the coating of the test tubes, 9 mg of active ingredient are first dissolved in 1 ml of acetone p.a. and then diluted to the desired concentration with acetone p.a. 250 μl of the solution are distributed homogeneously on the inner walls and base of a 25 ml test tube by turning and rocking on an orbital shaker (rocking rotation at 30 rpm for 2 h). With 900 ppm active ingredient solution and internal surface 44.7 cm^2, given homogeneous distribution, an area-based dose of 5 μg/cm^2 is achieved.
After the solvent has evaporated off, the tubes are populated with 5-10 adult dog ticks (Rhipicephalus sanguineus), sealed with a perforated plastic lid and incubated in a horizontal position in the dark at room temperature and ambient humidity. After 48 h, efficacy is determined. To this end, the ticks are knocked to the floor of the tube and incubated on a hotplate at 45-50° C. for not more than 5 min. Ticks which remain motionless on the floor or move in such an uncoordinated manner that they are unable to deliberately avoid the heat by climbing upwards are considered to be dead or moribund.
An efficacy of 100% means that all the ticks were dead or moribund. 0% efficacy means that none of the ticks had been harmed.

For the molecule `CN(C(=O)c1cc(-c2cnn(-c3c(Cl)cc(C(F)(C(F)(F)F)C(F)(F)F)cc3Cl)c2)cnc1Cl)C1CC1` [I-T3-100], the efficacy in the data set on Ctenocephalides felis [1], with Phaedon cochleariae (application rate 500 g/ha), with Myzus persicae (application rate 500 g/ha), in the data set on Tetranychus urticae (application rate 500 g/ha) and in the data set on Spodoptera frugiperda (application rate 500 g/ha) was 100% each time. The “efficacy (laying of fertile eggs)” value (in the data set on Boophilus microplus; in data set [4]) was 100% each time. The “efficacy (kill)” value in the data set with Lucilia cuprina, with Amblyomma hebraeum, in the data set on Ctenocephalides felis [3] and in the data set on Musca domestica was 100% each time. For the same molecule, in [2], the “logP^a)” value was 4.4. The lipophilicity (log P) in [2] (reversed-phase column (C18)) is reported as 4.4.

Consider `Cc1cc(C(F)(C(F)(F)F)C(F)(F)F)cc(C)c1-n1cc(-c2cnc(Cl)c(C(=O)N(C)C3CC3)c2)cn1` [I-T3-101], for which the efficacy is recorded as 100% in the data set on Ctenocephalides felis [1]; 100% in the data set on Phaedon cochleariae (application rate 500 g/ha); 100% in the data set with Myzus persicae (application rate 100 g/ha); 100% in the data set with Tetranychus urticae (application rate 500 g/ha); 83% in the data set on Spodoptera frugiperda (application rate 500 g/ha). Besides, the “efficacy (laying of fertile eggs)” value (with Boophilus microplus; in data set [4]) was 100% each time. In addition, the “efficacy (kill)” value in the data set with Lucilia cuprina is 100%; in the data set with Amblyomma hebraeum it was 95%; in the data set with Ctenocephalides felis [3], 100%; in the data set on Musca domestica it was 100%. Also, the “logP^a)” value in [2] (reversed-phase column (C18)) came out at 4.4. In data set [2] (reversed-phase column (C18)), the “log P” value was determined as 4.4.

For `Cc1cc(C(F)(C(F)(F)F)C(F)(F)F)cc(C)c1-n1cc(-c2cnc(Cl)c(C(=O)N(C)C3(C#N)CC3)c2)cn1` [I-T3-103], the efficacy was 100% with Ctenocephalides felis [1]; 100% in the data set on Phaedon cochleariae (application rate 500 g/ha); 90% with Myzus persicae (application rate 500 g/ha); 100% in the data set on Tetranychus urticae (application rate 500 g/ha); 100% in the data set with Spodoptera frugiperda (application rate 500 g/ha). The “efficacy (laying of fertile eggs)” value (in the data set on Boophilus microplus; in data set [4]) was 100% in each case. The “efficacy (kill)” value is given as 100% in the data set with Lucilia cuprina, 90% in the data set with Amblyomma hebraeum, 100% in the data set with Ctenocephalides felis [3] and 100% in the data set with Musca domestica. The “logP^a)” value in data set [2] (reversed-phase column (C18)) worked out at 4.3. In addition, the “log P” value in data set [2] (reversed-phase column (C18)) was 4.3.

On to `CCc1cc(C(F)(C(F)(F)F)C(F)(F)F)ccc1-n1cc(-c2cnc(Cl)c(C(=O)NC3(C#N)CC3)c2)cn1` [I-T3-105], for which the efficacy is given as 100% in the data set with Phaedon cochleariae (application rate 500 g/ha); 90% in the data set on Myzus persicae (application rate 500 g/ha); 90% with Tetranychus urticae (application rate 500 g/ha); 100% with Spodoptera frugiperda (application rate 500 g/ha); 100% in the data set on Rhipicephalus sanguineus. Further, in the data set with Boophilus microplus, the “efficacy (laying of fertile eggs)” value is reported as 100%. Further, the “efficacy (kill)” value in the data set on Lucilia cuprina was 100%; in the data set on Amblyomma hebraeum, 85%; with Ctenocephalides felis [3], 100%; in the data set with Musca domestica, 80%. Further, the “logP^a)” value in data set [2] (reversed-phase column (C18)) is given as 4.1. In data set [2] (reversed-phase column (C18)), the “log P” value is listed as 4.1.

With `Cc1cc(C(F)(C(F)(F)F)C(F)(F)F)cc(C(F)(F)F)c1-n1cc(-c2cnc(Cl)c(C(=O)N(C)C3CC3)c2)cn1` [I-T3-107], the efficacy in the data set on Ctenocephalides felis [1], in the data set with Phaedon cochleariae (application rate 500 g/ha), with Myzus persicae (application rate 500 g/ha), with Tetranychus urticae (application rate 500 g/ha) and with Spodoptera frugiperda (application rate 500 g/ha) was 100% throughout. The “efficacy (laying of fertile eggs)” value (in the data set with Boophilus microplus; in data set [4]) was 100% each time. In addition, the “efficacy (kill)” value in the data set on Lucilia cuprina, with Amblyomma hebraeum, in the data set with Ctenocephalides felis [3] and with Musca domestica was 100% in each case. Also, the “logP^a)” value in data set [2] (reversed-phase column (C18)) came out at 4.5. For the same molecule, in data set [2] (reversed-phase column (C18)), the “log P” value is 4.5.

As to `CN(C(=O)c1cc(-c2cnn(-c3c(Cl)cc(C(F)(C(F)(F)F)C(F)(F)F)cc3C(F)(F)F)c2)cnc1Cl)C1(C#N)CC1` [I-T3-116], the efficacy in the data set with Ctenocephalides felis [1] came to 100%; with Phaedon cochleariae (application rate 500 g/ha), 100%; in the data set with Myzus persicae (application rate 100 g/ha), 100%; with Tetranychus urticae (application rate 500 g/ha) it was 90%; with Spodoptera frugiperda (application rate 500 g/ha), 100%. Moreover, the “efficacy (laying of fertile eggs)” value (in the data set on Boophilus microplus; in data set [4]) was 100% throughout. Besides, the “efficacy (kill)” value in the data set on Lucilia cuprina, in the data set with Amblyomma hebraeum, in the data set with Ctenocephalides felis [3] and with Musca domestica was 100% throughout. Moreover, in data set [2] (reversed-phase column (C18)), the “logP^a)” value worked out at 4.3. Moreover, the “log P” value in data set [2] (reversed-phase column (C18)) was 4.3.

`Cc1ncc(-c2cnn(-c3c(Cl)cc(C(F)(C(F)(F)F)C(F)(F)F)cc3C(F)(F)F)c2)cc1C(=O)NC1CC1` [I-T3-124]: the efficacy with Ctenocephalides felis [1], in the data set on Phaedon cochleariae (application rate 100 g/ha), in the data set with Myzus persicae (application rate 100 g/ha), with Tetranychus urticae (application rate 100 g/ha) and in the data set with Spodoptera frugiperda (application rate 100 g/ha) was 100% throughout. The “efficacy (laying of fertile eggs)” value (in the data set on Boophilus microplus; in data set [4]) was 100% throughout. For the same molecule, the “efficacy (kill)” value in the data set with Lucilia cuprina, with Amblyomma hebraeum, in the data set with Ctenocephalides felis [3] and in the data set with Musca domestica was 100% each time. For the same molecule, the “logP^a)” value in data set [2] (reversed-phase column (C18)) was 3.5. Further, the “log P” value in [2] (reversed-phase column (C18)) is 3.5.

With `Cc1ncc(-c2cnn(-c3c(Cl)cc(C(F)(C(F)(F)F)C(F)(F)F)cc3C(F)(F)F)c2)cc1C(=O)N(C)C1(C#N)CC1` [I-T3-131], the efficacy was determined as 100% in the data set on Ctenocephalides felis [1]; 100% in the data set with Phaedon cochleariae (application rate 100 g/ha); 90% with Myzus persicae (application rate 100 g/ha); 100% in the data set on Tetranychus urticae (application rate 100 g/ha); 100% in the data set on Spodoptera frugiperda (application rate 100 g/ha). In addition, the “efficacy (laying of fertile eggs)” value (in the data set with Boophilus microplus; in data set [4]) was 100% in each case. In addition, the “efficacy (kill)” value in the data set on Lucilia cuprina, in the data set on Amblyomma hebraeum, with Ctenocephalides felis [3] and with Musca domestica was 100% throughout. In addition, the “logP^a)” value in data set [2] (reversed-phase column (C18)) is 3.9. Besides, the “log P” value in data set [2] (reversed-phase column (C18)) amounted to 3.9.
